Data on 27 compounds can be found in patent US20100292210A1, “Novel Compounds for A-Beta-Related Pathologies” (AstraZeneca AB, priority 2009, published 2010).

Each structure is given as a SMILES string.

The experiment has as its system Aβ42 release. The experiment in a line: Aβ42 release from HEK cells stably expressing APPswe, Meso Scale Discovery electrochemiluminescence assay. Particulars: Homo sapiens, HEK293; HEK cell line stably expressing APPswe; 4-6 h incubation with test compound; Aβ42 secreted to cell medium; read-out: pIC50 values of Aβ42 release (converted). It counts as cell-based. On the procedure: The level of activity of the compounds on Aβ formation was tested using the following method:
Compounds were diluted in 100% DMSO and stored at […] prior to use. Human Embryonic Kidney (HEK) cell line stably expressing APP with the Swedish mutation (APPswe) were cultured using Dulbecco's Modified Eagles medium (DMEM) supplied with […] glucose, Na-pyruvate and GlutaMAX with 10% FBS, 100 U/ml penicillin-streptomycin (PEST) respectively, 1×non-essential amino acids (NEAA), […], 100 μg/ml Zeocine. Cells at about 80% confluence were washed with PBS, detached from culture flasks using 1×Trypsin/EDTA diluted in PBS, re-suspended in cell media and plated in 384-well poly-d-lysine coated cell culture plates at about 10000-15000 cells/well, in 25 μL cell media. Optionally, cryo-preserved cells (frozen and stored at −140° C. in 90% cell media and 10% DMSO) were thawed, washed and plated as above. Next the cells were incubated for 15-24 h at 37° C. and 5% CO2, after which cell medium was changed. Fresh medium containing test compound diluted ×200 from prepared compound plate was added to the cells before further incubation for 4-6 hours at 37° C. and 5% CO2. After incubation with test compound the amount of Aβ peptides, including Aβ42, Aβ40, Aβ39, Aβ38 and Aβ37, secreted to cell medium was analyzed using the electrochemiluminescence assay technology from Meso Scale Discovery Technology, in combination with specific antibodies raised against the different Aβ peptides. Potential cytotoxic effects of the compounds were usually assayed by measuring the ATP content (ViaLight) from cell lysate.
For the compound `COc1cc(Nc2ccc3c(n2)OC(COC(C)C)CN(C(C)=O)C3)ccc1-n1cnc(C)c1` (stereo not drawn) [Example 31, 1-(2-(Isopropoxymethyl)-8-(3-methoxy-4-(4-methyl-1H-imidazol-1-yl)phenylamino)-2,3-dihydropyrido[3,2-f][1,4]oxazepin-4(5H)-yl)ethanone], the IC50 was 0.631 µM.
To `COc1cc(Nc2ccc3c(n2)OC(c2ccccc2)CN(C(C)=O)C3)ccc1-n1cnc(C)c1` (stereo not drawn) [Example 17, 1-(8-(3-methoxy-4-(4-methyl-1H-imidazol-1-yl)phenylamino)-2-phenyl-2,3-dihydropyrido[3,2-f][1,4]oxazepin-4(5H)-yl)ethanone] belongs 0.0794 µM; to `COc1cc(Nc2cnc3c(n2)O[C@H](c2ccccc2)CN(CC#N)C3)ccc1-n1cnc(C)c1` [Example 38, (R)-2-(3-(3-methoxy-4-(4-methyl-1H-imidazol-1-yl)phenylamino)-6-phenyl-6,7-dihydropyrazino[2,3-f][1,4]oxazepin-8(9H)-yl)acetonitrile], 0.1 µM.
Turning to `COc1cc(Nc2ccc3c(n2)OC(c2ccccc2)CN(CCO)C3=O)ccc1-n1cnc(C)c1` (stereo not drawn) [Example 20, 4-(2-Hydroxyethyl)-8-(3-methoxy-4-(4-methyl-1H-imidazol-1-yl)phenylamino)-2-phenyl-3,4-dihydropyrido[3,2-f][1,4]oxazepin-5(2H)-one], the IC50 is 0.2 µM.
`COc1cc(Nc2ccc3c(n2)O[C@H](c2ccccc2)CN(CCO)C3)cnc1-n1cnc(C)c1` [Example 43, (R)-2-(8-(5-methoxy-6-(4-methyl-1H-imidazol-1-yl)pyridin-3-ylamino)-2-phenyl-2,3-dihydropyrido[3,2-f][1,4]oxazepin-4(5H)-yl)ethanol]: the IC50 is 0.0316 µM.
In the case of `COc1cc(Nc2ccc3c(n2)OC(COC(C)C)CN(C)C3)ccc1-n1cnc(C)c1` (stereo not drawn) [Example 35, 2-(Isopropoxymethyl)-N-(3-methoxy-4-(4-methyl-1H-imidazol-1-yl)phenyl)-4-methyl-2,3,4,5-tetrahydropyrido[3,2-f][1,4]oxazepin-8-amine], the IC50 was 0.2 µM.
For `COc1cc(Nc2ccc3c(n2)OC(c2cc(C)nn2C)CN(CC#N)C3)ccc1-n1cnc(C)c1` (stereo not drawn) [Example 33, 2-(2-(1,3-Dimethyl-1H-pyrazol-5-yl)-8-(3-methoxy-4-(4-methyl-1H-imidazol-1-yl)phenylamino)-2,3-dihydropyrido[3,2-f][1,4]oxazepin-4(5H)-yl)acetonitrile], the IC50 was 0.316 µM.
On to `COc1cc(Nc2cnc3c(n2)O[C@H](c2ccccc2)CN(C)C3)ccc1-n1cnc(C)c1` [Example 39, (R)—N-(3-Methoxy-4-(4-methyl-1H-imidazol-1-yl)phenyl)-8-methyl-6-phenyl-6,7,8,9-tetrahydropyrazino[2,3-f][1,4]oxazepin-3-amine], for which the IC50 was 0.0794 µM.
As for `COc1cc(Nc2ccc3c(n2)O[C@H](c2ccccc2)CN(C)C3)ccc1-n1cnc(C)n1` [Example 44, (R)—N-(3-Methoxy-4-(3-methyl-1H-1,2,4-triazol-1-yl)phenyl)-4-methyl-2-phenyl-2,3,4,5-tetrahydropyrido[3,2-f][1,4]oxazepin-8-amine], the IC50 is 0.0316 µM.
In the case of `COc1cc(Nc2ccc3c(n2)OC(c2cccnc2)CN(C(C)=O)C3)ccc1-n1cnc(C)c1` (stereo not drawn) [Example 22, 1-(8-(3-Methoxy-4-(4-methyl-1H-imidazol-1-yl)phenylamino)-2-(pyridin-3-yl)-2,3-dihydropyrido[3,2-f][1,4]oxazepin-4(5H)-yl)ethanone], the IC50 is 0.501 µM.
For the compound `COc1cc(Nc2ccc3c(n2)OC(c2ccccc2)CN(CCF)C3)ccc1-n1cnc(C)c1` (stereo not drawn) [Example 15, 4-(2-fluoroethyl)-N-(3-methoxy-4-(4-methyl-1H-imidazol-1-yl)phenyl)-2-phenyl-2,3,4,5-tetrahydropyrido[3,2-f][1,4]oxazepin-8-amine], the IC50 was 0.0316 µM.
Consider `Cc1nccn1-c1ccc(Nc2ccc3c(n2)OC(c2ccccc2)CN(C)C3=O)cn1` (stereo not drawn) [Example 6, 4-methyl-8-(6-(2-methyl-1H-imidazol-1-yl)pyridin-3-ylamino)-2-phenyl-3,4-dihydropyrido[3,2-f][1,4]oxazepin-5(2H)-one], for which the IC50 is 6.31 µM.
For `COc1cc(Nc2ccc3c(n2)O[C@H](c2ccccc2)CN(C2CC2)C3)ccc1-n1cnc(C)n1` [Example 45, (R)-4-Cyclopropyl-N-(3-methoxy-4-(3-methyl-1H-1,2,4-triazol-1-yl)phenyl)-2-phenyl-2,3,4,5-tetrahydropyrido[3,2-f][1,4]oxazepin-8-amine] the value was 0.0251 µM.
In the case of `Cc1noc(-c2ccc(Nc3ccc4c(n3)OC(c3ccccc3)CN(C)C4=O)cc2)n1` (stereo not drawn) [Example 1, 4-methyl-8-(4-(3-methyl-1,2,4-oxadiazol-5-yl)phenylamino)-2-phenyl-3,4-dihydropyrido[3,2-f][1,4]oxazepin-5(2H)-one], the IC50 is 1.58 µM.
To `COc1cc(Nc2ccc3c(n2)O[C@H](c2ccccc2)CNC3)ccc1-n1cnc(C)c1` [Example 55, (R)—N-(3-Methoxy-4-(4-methyl-1H-imidazol-1-yl)phenyl)-2-phenyl-2,3,4,5-tetrahydropyrido[3,2-f][1,4]oxazepin-8-amine] belongs 0.0316 µM; to `COc1cc(Nc2ccc3c(n2)OC(c2ccccc2)CN(C)C3)ccc1-n1cnc(C)c1` (stereo not drawn) [Example 7, N-(3-methoxy-4-(4-methyl-1H-imidazol-1-yl)phenyl)-4-methyl-2-phenyl-2,3,4,5-tetrahydropyrido[3,2-f][1,4]oxazepin-8-amine], 0.0398 µM.
To `CN1Cc2ccc(Nc3ccc(-n4ccnc4)cc3)nc2OC(c2ccccc2)C1` (stereo not drawn) [Example 18, N-(4-(1H-imidazol-1-yl)phenyl)-4-methyl-2-phenyl-2,3,4,5-tetrahydropyrido[3,2-f][1,4]oxazepin-8-amine] belongs 0.1 µM; to `Cc1cncn1-c1ccc(Nc2ccc3c(n2)O[C@H](c2ccccc2)CN(CCO)C3)cc1` [Example 30, (R)-2-(8-(4-(5-methyl-1H-imidazol-1-yl)phenylamino)-2-phenyl-2,3-dihydropyrido[3,2-f][1,4]oxazepin-4(5H)-yl)ethanol], 0.631 µM; to `COc1cc(Nc2ccc3c(n2)O[C@@H](c2ccccc2)CN(C)C3)ccc1-n1cnc(C)c1` [Example 21, (S)—N-(3-methoxy-4-(4-methyl-1H-imidazol-1-yl)phenyl)-4-methyl-2-phenyl-2,3,4,5-tetrahydropyrido[3,2-f][1,4]oxazepin-8-amine], 0.2 µM.
For the compound `COc1cc(Nc2ccc3c(n2)O[C@H](c2ccccc2)CN(C)C3)ccc1-n1cnc(C)c1` [Example 10, (R)—N-(3-methoxy-4-(4-methyl-1H-imidazol-1-yl)phenyl)-4-methyl-2-phenyl-2,3,4,5-tetrahydropyrido[3,2-f][1,4]oxazepin-8-amine], the IC50 is 0.0126 µM.
For `COc1cc(Nc2ccc3c(n2)O[C@H](c2ccccc2)CN(C(=O)N(C)C)C3)ccc1-n1cnc(C)c1` [Example 40, (R)-8-(3-Methoxy-4-(4-methyl-1H-imidazol-1-yl)phenylamino)-N,N-dimethyl-2-phenyl-2,3-dihydropyrido[3,2-f][1,4]oxazepine-4(5H)-carboxamide] the value was 0.0501 µM.
To `Cc1nccn1-c1ccc(Nc2ccc3c(n2)OC(c2ccccc2)CN(CCO)C3=O)cc1` (stereo not drawn) [Example 24, 4-(2-hydroxyethyl)-8-(4-(2-methyl-1H-imidazol-1-yl)phenylamino)-2-phenyl-3,4-dihydropyrido[3,2-f][1,4]oxazepin-5(2H)-one] belongs 0.794 µM; to `COc1cc(Nc2ccc3c(n2)O[C@H](c2ccccc2)CN(CCO)C3)ccc1C#N` [Example 29, (R)-4-(4-(2-Hydroxyethyl)-2-phenyl-2,3,4,5-tetrahydropyrido[3,2-f][1,4]oxazepin-8-ylamino)-2-methoxybenzonitrile], 1.26 µM.
As for `COc1cc(Nc2ccc3c(n2)OC(C2CC2)CN(C)C3)ccc1-n1cnc(C)c1` (stereo not drawn) [Example 49, 2-Cyclopropyl-N-(3-methoxy-4-(4-methyl-1H-imidazol-1-yl)phenyl)-4-methyl-2,3,4,5-tetrahydropyrido[3,2-f][1,4]oxazepin-8-amine], the IC50 is 0.1 µM.
To `COc1nc(Nc2ccc3c(n2)OC(c2cccc(C)n2)CN(C)C3)ccc1-c1cnn(C)c1` (stereo not drawn) [Example 53, N-(6-Methoxy-5-(1-methyl-1H-pyrazol-4-yl)pyridin-2-yl)-4-methyl-2-(6-methylpyridin-2-yl)-2,3,4,5-tetrahydropyrido[3,2-f][1,4]oxazepin-8-amine] belongs 0.0501 µM.
With `CN1Cc2ccc(Nc3ccc(-c4cnn(C)c4)nc3)nc2O[C@H](c2ccccc2)C1` [Example 58, (R)-4-Methyl-N-(6-(1-methyl-1H-pyrazol-4-yl)pyridin-3-yl)-2-phenyl-2,3,4,5-tetrahydropyrido[3,2-f][1,4]oxazepin-8-amine], the IC50 is 0.316 µM.
For the compound `COc1cc(Nc2ccc3c(n2)OC(c2ccccc2)CN(CCO)C3)ccc1-n1cnc(C)c1` (stereo not drawn) [Example 46, 2-(8-(3-Methoxy-4-(4-methyl-1H-imidazol-1-yl)phenylamino)-2-phenyl-2,3-dihydropyrido[3,2-f][1,4]oxazepin-4(5H)-yl)ethanol], the IC50 was 0.0251 µM.
